Experimental data published in ChEMBL document CHEMBL6134863, “Novel Mitochondria-Targeted Asymmetric Heptamethine Cyanine Dye for Cancer Targeted NIR Imaging and Potent Necrosis and Senescence Induction with Prolonged Retention” (J Med Chem, 2025).
Calls of active or inactive are those of the source. The rule behind the calls is not given here.

Key:
[1] = Distribution coefficient, logD of compound; format: physicochemical; settings: octanol/water
[2] = Partition coefficient, logP of compound; format: physicochemical; settings: octanol/water
[3] = Antioxidant activity of compound in presence of Glutathione; format: functional
[4] = Antioxidant activity of compound in presence of […]; format: functional
NCI-H226 = test: Cytotoxicity against human NCI-H226 assessed as decrease in cell viability up to 10 uM incubated for 24 hrs by CCK-8 assay; format: functional, cell-based
[5] = Drug uptake in mouse 4T1 cells assessed as increase in red fluorescence intensity at 5 uM incubated for 30 mins by CY7 staining based microscopic analysis; format: ADME, cell-based; settings: 4t1, 0.5 h
[6] = Antioxidant activity of compound in presence of RNS; format: functional
[7] = Antioxidant activity of compound in presence of ONOO-; format: functional
[8] = Antioxidant activity of compound in presence of ROS; format: functional
[9] = Antioxidant activity of compound in presence of HCO3-; format: functional
[10] = Cytotoxicity against human Primary lung fibroblast assessed as decrease in cell viability up to 5 uM incubated for 24 hrs by CCK-8 assay; format: toxicity, cell-based
[11] = Antioxidant activity of compound in presence of L-Cysteine; format: functional
[12] = Antioxidant activity of compound in presence of HCHO; format: functional
[13] = Solubility of compound in DMSO-H2O; format: physicochemical
[14] = Antioxidant activity of compound in presence of TBHP; format: functional
[15] = Stability of compound in DMSO-H2O incubated for 150 mins by absorbance based analysis; format: physicochemical; settings: 2.5 h
[16] = Ratio of drug level in tumor to muscle of BALB/c mouse implanted with mouse 4T1 cells at 0.5 mg/kg, iv measured at 12 to 24 hrs; format: ADME, organism-based; settings: in vivo, time 12-24 hrs
[17] = Antioxidant activity of compound in presence of Br-; format: functional
[18] = Antioxidant activity of compound in presence of HSO3-; format: functional
[19] = Drug accumulation in BALB/c mouse tumor xenografted with human NCI-H520 cells assessed as increase in fluorescence intensity at 0.5 mg/kg, iv measured at 96 hrs by imaging based analysis; format: ADME, organism-based, Neoplasm; settings: in vivo
[20] = Antioxidant activity of compound in presence of Fe3+; format: functional
[21] = Antioxidant activity of compound in presence of OH; format: functional
[22] = Antioxidant activity of compound in presence of Cl-; format: functional
[23] = Drug uptake in human NCI-H226 cells assessed as increase in red fluorescence intensity at 5 uM incubated for 30 mins by CY7 staining based microscopic analysis; format: ADME, cell-based; settings: nci-h226, 0.5 h
[24] = Drug uptake in human NCI-H226 cells assessed as increase in green fluorescence intensity at 5 uM incubated for 30 mins by F-actin staining staining based microscopic analysis; format: ADME, cell-based; settings: nci-h226, 0.5 h
[25] = Antioxidant activity of compound in presence of NO2; format: functional
[26] = Drug uptake in human NCI-H226 cells assessed as increase in fluorescence intensity incubated for 24 hrs by fluorescence based microscopic analysis; format: ADME, cell-based; settings: nci-h226, 24 h
[27] = Drug localization in mitochondria of human NCI-H226 cell by MitoTracker Red based NIR confocal microscopic analysis; format: ADME
[28] = Antioxidant activity of compound in presence of CO3; format: functional
[29] = Antioxidant activity of compound in presence of H2O2-; format: functional
[30] = Antioxidant activity of compound in presence of Ca2+; format: functional
[31] = Drug accumulation in tumor to muscle of BALB/c mouse implanted with mouse 4T1 cells at 0.5 mg/kg, iv measured at 4 to 168 hrs; format: ADME, organism-based; settings: in vivo, time 4-168 hrs
[32] = Antioxidant activity of compound in presence of SO4; format: functional
[33] = Drug uptake in mouse 4T1 cells assessed as increase in green fluorescence intensity at 5 uM incubated for 30 mins by F-actin staining staining based microscopic analysis; format: ADME, cell-based; settings: 4t1, 0.5 h
[34] = Antioxidant activity of compound in presence of NH4+; format: functional
NCI-H250 = test: Antitumor activity against human […] cells xenografted in BALB/c mouse assessed as tumor growth inhibition 0.5 mg/kg, iv measured for 5 days; format: functional, organism-based; settings: time 5.0 day
[35] = Photostability of compound in DMSO-H2O incubated for 1 hr irradiated with deuterium lamp by absorbance based analysis; format: physicochemical; settings: read-out: Stability
NIH3T3 = test: Cytotoxicity against mouse 3T3 cells assessed as decrease in cell viability up to 5 uM incubated for 24 hrs by CCK-8 assay; format: toxicity, cell-based; settings: nih3t3, 24 h
[36] = Antioxidant activity of compound in presence of RSS; format: functional
[37] = Cytotoxicity against human Primary lung fibroblast assessed as decrease in cell viability up to 10 uM incubated for 24 hrs by CCK-8 assay; format: toxicity, cell-based
[38] = Antioxidant activity of compound in presence of ClO-; format: functional

**Q.** For `COC(=O)C(C)NC(=O)CCN1/C(=C/C=C2\CCCC(/C=C/C3=[N+](CCC(=O)NC(C)C(=O)OC)c4ccccc4C3(C)C)=C2Cl)C(C)(C)c2ccccc21` (configuration not stated), which logD [1] is on record?
**A.** Its logD is 3.92.

**Q.** And the logP [2]?
**A.** The logP was 5.36.

**Q.** Which Activity [3] does the source give for `CCCN1/C(=C/C=C2\CCCC(/C=C/C3=[N+](CCCOc4ccc(C(=O)O)cc4)c4ccccc4C3(C)C)=C2Cl)C(C)(C)c2ccccc21.[Br-]` here?
**A.** Its Activity is “Active”.

**Q.** What about the Activity [4] of the same compound?
**A.** Its Activity is “Active”.

**Q.** What about the Activity (NCI-H226) of the same compound?
**A.** The Activity was “Active”.

**Q.** And the Drug uptake [5]?
**A.** The Drug uptake was “Not_active”.

**Q.** What about the Activity [6] of the same compound?
**A.** Its Activity is “Active”.

**Q.** What about the Activity [7] of the same compound?
**A.** The Activity was “Active”.

**Q.** What about the Activity [8] of the same compound?
**A.** Its Activity is “Active”.

**Q.** And the Activity [9]?
**A.** The Activity was “Active”.

**Q.** And the Activity [10]?
**A.** Its Activity is “Non-toxic”.

**Q.** What about the Activity [11] of the same compound?
**A.** Its Activity is “Active”.

**Q.** And the Activity [12]?
**A.** Its Activity is “Active”.

**Q.** What about the solubility [13] of the same compound?
**A.** The solubility was 170 µg/mL.

**Q.** And the Activity [14]?
**A.** Its Activity is “Active”.

**Q.** And the Stability [15]?
**A.** Its Stability is “Stable”.

**Q.** What about the Ratio [16] of the same compound?
**A.** The Ratio was greater than 5.

**Q.** And the logD [1]?
**A.** Its logD is 4.63.

**Q.** What about the Activity [17] of the same compound?
**A.** The Activity was “Active”.

**Q.** And the Activity [18]?
**A.** The Activity was “Active”.

**Q.** And the Drug uptake [19]?
**A.** Its Drug uptake is “Active”.

**Q.** What about the Activity [20] of the same compound?
**A.** The Activity was “Active”.

**Q.** And the Activity [21]?
**A.** The Activity was “Active”.

**Q.** And the Activity [22]?
**A.** Its Activity is “Active”.

**Q.** And the Drug uptake [23]?
**A.** Its Drug uptake is “Not_active”.

**Q.** And the Drug uptake [24]?
**A.** Its Drug uptake is “Not_active”.

**Q.** And the Activity [25]?
**A.** Its Activity is “Active”.

**Q.** And the Drug uptake [26]?
**A.** Its Drug uptake is “Active”.

**Q.** What about the Drug uptake [27] of the same compound?
**A.** The Drug uptake was “Active”.

**Q.** And the Activity [28]?
**A.** Its Activity is “Active”.

**Q.** What about the Activity [29] of the same compound?
**A.** Its Activity is “Active”.

**Q.** What about the Activity [30] of the same compound?
**A.** Its Activity is “Active”.

**Q.** And the Drug uptake [31]?
**A.** Its Drug uptake is “Active”.

**Q.** What about the Activity [32] of the same compound?
**A.** Its Activity is “Active”.

**Q.** And the logP [2]?
**A.** Its logP is 6.21.

**Q.** And the Drug uptake [33]?
**A.** Its Drug uptake is “Not_active”.

**Q.** What about the Activity [34] of the same compound?
**A.** Its Activity is “Active”.

**Q.** And the TGI (NCI-H250)?
**A.** Its TGI is “Active”.

**Q.** And the remaining at 1 h [35]?
**A.** The remaining at 1 h was 89.4%.

**Q.** What about the Activity (NIH3T3) of the same compound?
**A.** Its Activity is greater than 80%.

**Q.** What about the Activity [36] of the same compound?
**A.** Its Activity is “Active”.

**Q.** What about the Activity [37] of the same compound?
**A.** The Activity was “Non-toxic”.

**Q.** And the Activity [38]?
**A.** Its Activity is “Active”.

**Q.** For `CC1(C)C(/C=C/C2=C(Cl)C(=C/C=C3/N(Cc4ccc(C(=O)O)cc4)c4ccc(N)cc4C3(C)C)/CCC2)=[N+](Cc2ccc(C(=O)O)cc2)c2ccc(N)cc21`, which logD [1] is on record?
**A.** Its logD is 3.22.

**Q.** And the logP [2]?
**A.** Its logP is 5.6.

**Q.** Which results are given for `Cc1ccc2c(c1)C(C)(C)C(/C=C/C1=C(Cl)C(=C/C=C3/N(Cc4ccc(C(=O)O)cc4)c4ccc(C)cc4C3(C)C)/CCC1)=[N+]2Cc1ccc(C(=O)O)cc1.[Br-]`?
**A.** logD [1]: 4.74; Drug uptake [31]: Active; logP [2]: 6.14

**Q.** With `CC1(C)C(/C=C/C2=C(Cl)C(=C/C=C3/N(CCCCCC(=O)O)c4ccccc4C3(C)C)/CCC2)=[N+](CCCOc2ccc(C(=O)O)cc2)c2ccccc21.[Br-]` as the compound, how does the Drug uptake [5] read?
**A.** Its Drug uptake is “Active”.

**Q.** What about the solubility [13] of the same compound?
**A.** Its solubility is 170 µg/mL.

**Q.** And the Ratio [16]?
**A.** The Ratio was greater than 5.

**Q.** What about the logD [1] of the same compound?
**A.** Its logD is 4.23.

**Q.** And the Drug uptake [23]?
**A.** The Drug uptake was “Active”.

**Q.** And the Drug uptake [24]?
**A.** Its Drug uptake is “Active”.

**Q.** What about the Drug uptake [31] of the same compound?
**A.** The Drug uptake was “Active”.

**Q.** And the logP [2]?
**A.** Its logP is 5.9.

**Q.** What about the Drug uptake [33] of the same compound?
**A.** Its Drug uptake is “Active”.

**Q.** With `COC(=O)CNC(=O)c1ccc(OCCC[N+]2=C(/C=C/C3=C(Cl)C(=C/C=C4/N(Cc5ccc(C(=O)O)cc5)c5ccccc5C4(C)C)/CCC3)C(C)(C)c3ccccc32)cc1.[Br-]` as the compound, how does the Drug uptake [5] read?
**A.** Its Drug uptake is “Active”.

**Q.** And the Ratio [16]?
**A.** Its Ratio is greater than 5.

**Q.** And the logD [1]?
**A.** The logD was 4.3.

**Q.** What about the Drug uptake [23] of the same compound?
**A.** The Drug uptake was “Active”.

**Q.** And the Drug uptake [24]?
**A.** The Drug uptake was “Active”.

**Q.** And the Drug uptake [31]?
**A.** Its Drug uptake is “Active”.

**Q.** What about the logP [2] of the same compound?
**A.** Its logP is 6.18.

**Q.** What about the Drug uptake [33] of the same compound?
**A.** The Drug uptake was “Active”.

**Q.** What does the source list for `COC(=O)CCC(=O)CNC(=O)c1ccc(CN2/C(=C/C=C3\CCCC(/C=C/C4=[N+](Cc5ccc(C(=O)NCC(=O)CCC(=O)OC)cc5)c5ccc6ccccc6c5C4(C)C)=C3Cl)C(C)(C)c3c2ccc2ccccc32)cc1.[Br-]`?
**A.** logD [1]: 5.28; Drug uptake [31]: Active; logP [2]: 7.21

**Q.** For `CC(C)(C)OC(=O)Nc1ccc2c(c1)C(C)(C)C(/C=C/C1=C(Cl)C(=C/C=C3/N(Cc4ccc(C(=O)O)cc4)c4ccc(NC(=O)OC(C)(C)C)cc4C3(C)C)/CCC1)=[N+]2Cc1ccc(C(=O)O)cc1`, which logD [1] is on record?
**A.** The logD was 3.78.

**Q.** What about the logP [2] of the same compound?
**A.** Its logP is 6.92.

**Q.** For `CCN1/C(=C/C=C2\CCCC(/C=C/C3=[N+](Cc4ccc(C(=O)O)cc4)c4ccccc4C3(C)C)=C2Cl)C(C)(C)c2ccccc21.[Br-]`, which Drug uptake [5] is on record?
**A.** The Drug uptake was “Not_active”.

**Q.** And the logD [1]?
**A.** Its logD is 4.24.

**Q.** And the Drug uptake [23]?
**A.** The Drug uptake was “Not_active”.

**Q.** And the Drug uptake [24]?
**A.** The Drug uptake was “Not_active”.

**Q.** What about the Drug uptake [31] of the same compound?
**A.** The Drug uptake was “Active”.

**Q.** What about the logP [2] of the same compound?
**A.** The logP was 5.89.

**Q.** And the Drug uptake [33]?
**A.** The Drug uptake was “Not_active”.
